Laboratory results as given in patent US20240261258A1, “Presurgical Perineural Administration of Resiniferatoxin For Reduction of Post-Operative Pain” (Sorrento Therapeutics, Inc., priority 2021, published 2024).

Columns and labels:
[1] = system: dog undergoing TPLO, femoral and sciatic nerves; experiment: TPLO in a single dog after perineural RTX (Example A); type: in vivo
Description: A TPLO (Tibial Plateau Osteotomy) was performed on a single dog. Before surgery, 25 μg RTX was administered perineurally to the femoral and sciatic nerves. The procedure included cutting the bone in the leg, changing the angle of the knee articulation, screwing in a plate, and resewing muscle that was cut to access the knee.
After waking up, all of the dog's motor functions were preserved. […] The dog was able to put the affected leg down from time to time when ambulating but, as would be expected, the leg was not fully weight-bearing.

[2] = system: healthy dogs undergoing TPLO surgery; experiment: Algometer measurements on the surgical site; type: in vivo, dog
Description: The injection site of RTX or local anesthetic was evaluated by visual examination (normal, red, swollen) and palpation (no pain, mild, severe). The surgical site was evaluated by visual examination (normal, red, swollen) and with the aid of an algometer. With the dog in lateral recumbency, the tip of the algometer was placed on the surgical site and pressure was manually applied until the animal moved the leg. During the baseline data collection, several measurements were taken until 3 measurements were within ±1 Newton (N). The number recorded corresponded to the average of these 3 values. After surgery, the force was applied only once. Data were collected from both the left (treated) and the right (non-treated) hindlimbs.
Mean plus or minus the standard deviation (±SD) force in Newton was recorded at the pressure applied on the surgical incision when the subject moved the leg from the algometer. The left side was the treated stifle.

[3] = system: SP nerve axons of sciatic and femoral nerves; experiment: Quantification of SP immunopositive nerve fibers; type: in vivo, dog; conditions: for Density of SP nerve axons in the ipsilateral femoral nerve: not statistically significant
Description: FIGS. 2A-J show density of SP nerve axons in representative confocal images of ipsilateral (left; A-D) and contralateral (right; E-H) sciatic nerve from dogs post-TPLO and after different treatment and doses of RTX. Each bar represents the mean±SEM. Data were analyzed by one-way ANOVA followed by Tukey post hoc test; *p<0.05. FIGS. 2I-J are bar graphs of the density of SP nerve axons (density of nerve fibers in mm/mm3) in ipsilateral (I), and contralateral (J) sciatic nerves as measured in n subjects in each group.
FIGS. 4A-J show the density of SP-immunoreactive axons in representative confocal images showing the presence of […] axons from ipsilateral (A-D) and contralateral (E-H) canine femoral nerves from dogs post-TPLO and after treatment of RTX. Each bar represents the mean±SEM. FIGS. 4I-J are bar graphs of the density of SP nerve axons (density of nerve fibers in mm/mm3) in ipsilateral (I), and contralateral (J) femoral nerves as measured in n subjects in each group.
FIG. 4 illustrates the effect of RTX on SP density in nerve fibers innervating the ipsilateral (FIG. 4A-D) and contralateral (FIG. 4E-H) femoral nerves from dogs post-TPLO.

[4] = 25 μg RTX perineurally before surgery

C=C(C)[C@]12C[C@@H](C)[C@@]34O[C@](Cc5ccccc5)(O[C@@H]1[C@@H]3C=C(COC(=O)Cc1ccc(O)c(OC)c1)C[C@]1(O)C(=O)C(C)=C[C@@H]41)O2 [RTX, resiniferatoxin]
Additional pain medications when the dog woke up [1, 4]: No additional pain medications | Motor functions after waking up [1, 4]: preserved | Need to deepen the general anesthesia during cutting of the bone [1, 4]: no need to deepen the general anesthesia | Need to increase the opioid dose for the last part of the surgery [1, 4]: no need to increase the opioid dose | Pain at manipulation, inflammation, and swelling (standardized veterinary post-surgical pain scale) [1, 4]: lower than expected | Time until the dog was up and walking [1, 4]: Within a couple of hours | Reaction of the dog during cutting of the bone ([1]; 25 μg RTX perineurally to femoral and sciatic nerves before surgery): no reaction | Algometer force on surgical site when the dog moved the leg (mean ± SD) ([2]; Baseline, L (treated) hindlimb, Group 1 High, 25 μg): 7.4 ± 3.1 Newton | Algometer force on surgical site when the dog moved the leg (mean ± SD) ([2]; Baseline, L (treated) hindlimb, Group 2 Low, 6.25 μg): 6.2 ± 2.3 Newton | Algometer force on surgical site when the dog moved the leg (mean ± SD) ([2]; Baseline, L (treated) hindlimb, Group 3 Local, 50 μg): 5.7 ± 2.5 Newton | Algometer force on surgical site when the dog moved the leg (mean ± SD) ([2]; Baseline, R (non-treated) hindlimb, Group 1 High, 25 μg): 7.1 ± 3.7 Newton | Algometer force on surgical site when the dog moved the leg (mean ± SD) ([2]; Baseline, R (non-treated) hindlimb, Group 2 Low, 6.25 μg): 7.0 ± 2.3 Newton | Algometer force on surgical site when the dog moved the leg (mean ± SD) ([2]; Baseline, R (non-treated) hindlimb, Group 3 Local, 50 μg): 8.5 ± 2.4 Newton | Algometer force on surgical site when the dog moved the leg (mean ± SD) ([2]; Day 1, L (treated) hindlimb, Group 1 High, 25 μg): 7.4 ± 5.9 Newton | Algometer force on surgical site when the dog moved the leg (mean ± SD) ([2]; Day 1, L (treated) hindlimb, Group 2 Low, 6.25 μg): 5.0 ± 2.1 Newton | Algometer force on surgical site when the dog moved the leg (mean ± SD) ([2]; Day 1, L (treated) hindlimb, Group 3 Local, 50 μg): 9.2 ± 2.1 Newton | Algometer force on surgical site when the dog moved the leg (mean ± SD) ([2]; Day 1, R (non-treated) hindlimb, Group 1 High, 25 μg): 6.1 ± 2.3 Newton | Algometer force on surgical site when the dog moved the leg (mean ± SD) ([2]; Day 1, R (non-treated) hindlimb, Group 2 Low, 6.25 μg): 3.8 ± 1.9 Newton | Algometer force on surgical site when the dog moved the leg (mean ± SD) ([2]; Day 1, R (non-treated) hindlimb, Group 3 Local, 50 μg): 9.6 ± 6.3 Newton | Algometer force on surgical site when the dog moved the leg (mean ± SD) ([2]; Day 2, L (treated) hindlimb, Group 1 High, 25 μg): 5.4 ± 3.3 Newton | Algometer force on surgical site when the dog moved the leg (mean ± SD) ([2]; Day 2, L (treated) hindlimb, Group 2 Low, 6.25 μg): 5.0 ± 2.7 Newton | Algometer force on surgical site when the dog moved the leg (mean ± SD) ([2]; Day 2, L (treated) hindlimb, Group 3 Local, 50 μg): 8.5 ± 1.5 Newton | Algometer force on surgical site when the dog moved the leg (mean ± SD) ([2]; Day 2, R (non-treated) hindlimb, Group 1 High, 25 μg): 4.9 ± 2.1 Newton | Algometer force on surgical site when the dog moved the leg (mean ± SD) ([2]; Day 2, R (non-treated) hindlimb, Group 2 Low, 6.25 μg): 3.7 ± 2.0 Newton | Algometer force on surgical site when the dog moved the leg (mean ± SD) ([2]; Day 2, R (non-treated) hindlimb, Group 3 Local, 50 μg): 6.5 ± 3.5 Newton | Algometer force on surgical site when the dog moved the leg (mean ± SD) ([2]; Day 3, L (treated) hindlimb, Group 1 High, 25 μg): 5.3 ± 1.5 Newton | Algometer force on surgical site when the dog moved the leg (mean ± SD) ([2]; Day 3, L (treated) hindlimb, Group 2 Low, 6.25 μg): 5.9 ± 4.2 Newton | Algometer force on surgical site when the dog moved the leg (mean ± SD) ([2]; Day 3, L (treated) hindlimb, Group 3 Local, 50 μg): 7.7 ± 2.0 Newton | Algometer force on surgical site when the dog moved the leg (mean ± SD) ([2]; Day 3, R (non-treated) hindlimb, Group 1 High, 25 μg): 7.1 ± 1.8 Newton | Algometer force on surgical site when the dog moved the leg (mean ± SD) ([2]; Day 3, R (non-treated) hindlimb, Group 2 Low, 6.25 μg): 6.3 ± 1.5 Newton | Algometer force on surgical site when the dog moved the leg (mean ± SD) ([2]; Day 3, R (non-treated) hindlimb, Group 3 Local, 50 μg): 6.5 ± 3.4 Newton | Algometer force on surgical site when the dog moved the leg (mean ± SD) ([2]; Day 14, L (treated) hindlimb, Group 1 High, 25 μg): 5.3 ± 3.9 Newton | Algometer force on surgical site when the dog moved the leg (mean ± SD) ([2]; Day 14, L (treated) hindlimb, Group 2 Low, 6.25 μg): 2.9 ± 1.2 Newton | Algometer force on surgical site when the dog moved the leg (mean ± SD) ([2]; Day 14, L (treated) hindlimb, Group 3 Local, 50 μg): 6.6 ± 4.2 Newton | Algometer force on surgical site when the dog moved the leg (mean ± SD) ([2]; Day 14, R (non-treated) hindlimb, Group 1 High, 25 μg): 5.0 ± 2.3 Newton | Algometer force on surgical site when the dog moved the leg (mean ± SD) ([2]; Day 14, R (non-treated) hindlimb, Group 2 Low, 6.25 μg): 5.2 ± 1.5 Newton | Algometer force on surgical site when the dog moved the leg (mean ± SD) ([2]; Day 14, R (non-treated) hindlimb, Group 3 Local, 50 μg): 4.7 ± 3.5 Newton | Algometer force on surgical site when the dog moved the leg (mean ± SD) ([2]; Day 28, L (treated) hindlimb, Group 1 High, 25 μg): 5.8 ± 2.4 Newton | Algometer force on surgical site when the dog moved the leg (mean ± SD) ([2]; Day 28, L (treated) hindlimb, Group 2 Low, 6.25 μg): 4.5 ± 3.9 Newton | Algometer force on surgical site when the dog moved the leg (mean ± SD) ([2]; Day 28, L (treated) hindlimb, Group 3 Local, 50 μg): 4.4 ± 2.6 Newton | Algometer force on surgical site when the dog moved the leg (mean ± SD) ([2]; Day 28, R (non-treated) hindlimb, Group 1 High, 25 μg): 4.6 ± 3.5 Newton | Algometer force on surgical site when the dog moved the leg (mean ± SD) ([2]; Day 28, R (non-treated) hindlimb, Group 2 Low, 6.25 μg): 2.7 ± 2.1 Newton | Algometer force on surgical site when the dog moved the leg (mean ± SD) ([2]; Day 28, R (non-treated) hindlimb, Group 3 Local, 50 μg): 5.0 ± 1.9 Newton | Algometer force on surgical site when the dog moved the leg (mean ± SD) ([2]; Day 56, L (treated) hindlimb, Group 1 High, 25 μg): 7.0 ± 3.1 Newton | Algometer force on surgical site when the dog moved the leg (mean ± SD) ([2]; Day 56, L (treated) hindlimb, Group 2 Low, 6.25 μg): 4.9 ± 1.8 Newton | Algometer force on surgical site when the dog moved the leg (mean ± SD) ([2]; Day 56, L (treated) hindlimb, Group 3 Local, 50 μg): 10.9 ± 8.7 Newton | Algometer force on surgical site when the dog moved the leg (mean ± SD) ([2]; Day 56, R (non-treated) hindlimb, Group 1 High, 25 μg): 6.3 ± 1.2 Newton | Algometer force on surgical site when the dog moved the leg (mean ± SD) ([2]; Day 56, R (non-treated) hindlimb, Group 2 Low, 6.25 μg): 5.7 ± 1.7 Newton | Algometer force on surgical site when the dog moved the leg (mean ± SD) ([2]; Day 56, R (non-treated) hindlimb, Group 3 Local, 50 μg): 9.0 ± 4.6 Newton | Density of SP nerve axons in the contralateral sciatic nerve vs control treatment ([3]; RTX treated groups, p=0.9122, p=0.9995, p=0.9971): did not affect | Density of SP nerve axons in the contralateral femoral nerve ([3]; RTX treatment, p=0.9907, p=0.8812, p=0.9066): did not have an effect | Density of SP axons of the ipsilateral sciatic nerve vs control treatment ([3]; local administration (50 μg), p=0.0155): statistically significant reduction | Density of SP axons of the ipsilateral sciatic nerve vs control treatment ([3]; peri-neural 3.12 μg per nerve (6.25 μg total), p=0.0335): statistically significant reduction | Density of SP nerve axons in the ipsilateral femoral nerve ([3]; peri-neural 3.12 μg per nerve, p=0.8519): marked trend in reducing density | Density of SP axons of the ipsilateral sciatic nerve vs control treatment ([3]; peri-neural 12.5 μg per nerve (25 μg total), p=0.0112): statistically significant reduction | Density of SP nerve axons in the ipsilateral femoral nerve ([3]; peri-neural 12.5 μg per nerve, p=0.1216): marked trend in reducing density
